# “And” between values parts separate entries of the source, which are not always exact repeats. Equal entries are not always repeated. Where two headings read alike, the source gives them in different places.
# Assays:
# [1] = tested on: intramacrophage amastigotes of L. donovani (LV9); parameters: method as in PMID 16949702; conditions: cited from earlier work
# [2] = tested on: L. infantum promastigotes (LV50); experiment: MTT viability assay on promastigotes; assay type: cell-based, Leishmania infantum; conditions: for IC50: Leishmania infantum, stationary phase promastigotes, 24 h
# Experimental: The MON1 L. infantum laboratory strain LV50 originating from a visceral leishmaniasis case (Laboratory of Molecular Epidemiology and Experimental Pathology, Institut Pasteur de Tunis) was used to test the effect of the chemical compounds. Promastigote cultures were inoculated in RPMI-1640 media supplemented with 2 mM L-glutamine, 100 U/mL penicillin, 100 U/mL streptomycin and 10% (v/v) heat-inactivated fetal bovine serum at 22 °C. Promastigotes were collected at the beginning of the stationary phase (day 5), counted, centrifuged and seeded at 10^6/mL in 10 mL of complete media.
# The effect of the chemical compounds on the viability of L. infantum promastigotes was evaluated by a colorimetric MTT (3-(4,5-dimethylthiazol-2yl)-2,5-diphenyl tetrazolium bromide) 96-well plate assay as previously described in [7]. This test consisted of a reduction of tetrazolium salt to a […] crystal (blue formazan) by the succinate dehydrogenase activity of mitochondria in living cells, which can be quantified by spectrophotometry. Briefly, 90 μL of LV50 promastigotes harvested from the stationary growth phase of 10^6/mL culture were added to a 96-well culture plate with various concentrations of the selected compounds to obtain a final volume of 100 µL, compound concentrations of 1.5–100 μM, and a final concentration of 1% DMSO per well. Plates were incubated at 25 °C for 24 h.
# (§1) Mock-treated THP-1-derived macrophages and promastigotes (1% DMSO) were used as controls. After 24 h of incubation, MTT solution was added at 1 mg/mL to each well and incubated at the appropriate cell temperatures for 4 h. Then, 150 μL of DMSO was added to each well to dissolve the blue formazan, and the optical density (OD) was measured at 560 nm with a microplate reader (MULTISCAN, Labsystems, Thermo Fisher Scientific, Ratastie, Finland).
# The promastigotes and THP-1-derived macrophage viabilities were expressed as the percentage of the viable promastigotes or cells in treated conditions relative to the 1% DMSO cultures, as previously described in [7]. […]
# [3] = MTT cytotoxicity assay on macrophages; assay type: cell-based, human; conditions: human
# Experimental: (§2) The human myelomonocytic cell line, THP-1, was ordered from the American Type Culture Collection (ATCC, TIB-202). Cells were maintained in RPMI 1640/Glutamax-I media (Gibco BRL, Bleiswijk, The Netherlands) supplemented with 10% heat-inactivated fetal calf serum (Gibco, Bleiswijk, The Netherlands) plus penicillin G (100 U/mL) and streptomycin ([…]). THP-1 cells were differentiated to macrophages after their treatment with 20 ng/mL phorbol […] (PMA) (Sigma, St. Louis, MO, USA) for 48 h at 37 °C, 5% CO2. The viability of THP-1 mature macrophage-like cells was determined to be >97% by the Trypan blue dye exclusion assay.
# (§3) For the cytotoxicity assay, we used the THP-1-derived macrophages (50,000 cells/well) seeded in 96-well plates and treated with serial concentrations of compounds at the same conditions as for the promastigotes for 24 h.
# as §1
# (§4) The promastigotes and THP-1-derived macrophage viabilities were expressed as the percentage of the viable promastigotes or cells in treated conditions relative to the 1% DMSO cultures, as previously described in [7]. The half maximal inhibitory concentration (IC50) and 50% cytotoxic concentrations (CC50) values were calculated for all the tested compounds by interpolation.
# [4] = tested on: THP-1-derived macrophages; experiment: MTT cytotoxicity assay on macrophages; assay type: cell-based, human; conditions: MTT, 24 h; read-out: Uninfected THP-1-Derived Macrophages CC50
# Experimental: as §2, §3, §1, §4
# LieIF4A [5] = target: T1, LieIF4A (Leishmania infantum, UniProt A4HRK0); conditions: cited from earlier work; for Ki: ATPase kinetics, calculated from data in ref 7; for IC50: read-out: LieIF4A ATPase assay IC50
# T1 construct: His6; made in house; host or cells: Escherichia coli Rosetta
# T1 sequence (A4HRK0 1-403): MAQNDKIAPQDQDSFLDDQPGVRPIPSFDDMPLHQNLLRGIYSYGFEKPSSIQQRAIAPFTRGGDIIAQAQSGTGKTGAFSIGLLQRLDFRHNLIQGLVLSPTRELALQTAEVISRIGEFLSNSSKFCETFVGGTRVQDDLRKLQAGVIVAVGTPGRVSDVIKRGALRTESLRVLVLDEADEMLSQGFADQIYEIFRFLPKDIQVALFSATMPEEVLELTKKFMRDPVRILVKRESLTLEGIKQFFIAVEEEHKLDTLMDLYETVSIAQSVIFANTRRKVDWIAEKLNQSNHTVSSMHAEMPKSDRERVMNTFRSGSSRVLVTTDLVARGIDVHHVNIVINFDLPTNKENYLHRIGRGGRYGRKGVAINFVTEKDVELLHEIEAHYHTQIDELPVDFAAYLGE
# eIF4AMus [6] = target: T2, eIF4AMus (Mus musculus, UniProt P60843); parameters: method as in PMID 29346371; conditions: ATPase kinetics, calculated from data in ref 7, cited from earlier work
# T2 construct: His6; made in house; host or cells: Escherichia coli Rosetta
# T2 sequence (P60843 whole entry): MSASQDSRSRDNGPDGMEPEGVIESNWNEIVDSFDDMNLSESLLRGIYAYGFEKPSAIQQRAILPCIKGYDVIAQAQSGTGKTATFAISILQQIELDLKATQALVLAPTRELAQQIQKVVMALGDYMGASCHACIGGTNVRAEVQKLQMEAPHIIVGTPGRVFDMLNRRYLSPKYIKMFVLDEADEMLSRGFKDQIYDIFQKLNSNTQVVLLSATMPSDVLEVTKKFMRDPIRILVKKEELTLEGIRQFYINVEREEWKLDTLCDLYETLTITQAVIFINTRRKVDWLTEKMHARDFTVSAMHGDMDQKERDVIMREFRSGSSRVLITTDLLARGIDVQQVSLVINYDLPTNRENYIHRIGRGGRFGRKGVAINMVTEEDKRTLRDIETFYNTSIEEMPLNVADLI
# [7] = tested on: L. infantum promastigotes (LV50); parameters: method as in PMID 29346371; conditions: cited from earlier work
# [8] = tested on: THP-1-derived macrophages; conditions: cited from earlier work
# LieIF4A [9] = target: T1, LieIF4A; experiment: RNA-dependent ATPase assay (Malachite green), LieIF4A; assay type: biochemical
# Experimental: (§5) A colorimetric assay was used to measure the phosphate released during ATP hydrolysis based on Malachite green, as previously described in [8, 9]. Reactions were performed at 37 °C in 96 well microtiter plates in a final volume of 50 μL. The reaction buffer contained 50 mM potassium acetate, 20 mM MES pH 6, 2 mM dithiothreitol (DTT), 0.1 mg/mL BSA and various concentrations of whole yeast RNA (Type XI-C, Sigma-Aldrich, St. Louis, MO, USA). 5 mM and 1 mM magnesium acetate were added to the LieIF4A and eIF4AMus reactions, respectively. Reactions were initiated by adding ATP; when not noted otherwise, the ATP concentration used was 1 mM. Reactions were stopped after various times with ethylenediaminetetraacetic acid (EDTA, final concentration 60 mM). The absorption at 630 nm was converted to phosphate concentration by a reference curve generated from a dilution series of a known phosphate concentration (0.1 mM Pi standard; Innova Biosciences, Cambridge, UK). Reaction velocities were determined by a linear regression fit of the phosphate generated against time. Only the initial linear phases of the curves were used. Velocities were determined for three independent experiments for each reaction condition. The Michaelis –Menten (Km) and the inhibition kinetics (Ki) constants were obtained by nonlinear regression using GraphPad Prism 8 (GraphPad Software).
# eIF4AMus [10] = target: T2, eIF4AMus; experiment: RNA-dependent ATPase assay (Malachite green), eIF4AMus; assay type: biochemical
# Experimental: as §5
# [11] = tested on: L. infantum promastigotes; parameters: method as in PMID 21417924; conditions: cited from earlier work
# [12] = L. infantum, read-out: Anti-leishmanial activity IC50
molecule,measurement,setting,value
7-α/β-aminocholesterol,IC50,[1],1.3 µM
CC(C)CCC[C@@H](C)[C@H]1CC[C@H]2[C@@H]3CC(=O)[C@H]4C[C@@H](O)CC[C@]4(C)[C@H]3CC[C@]12C [6-ketocholestanol],IC50,[2],37 ± 6.6 µM
same,CC50 at 24 h,"[3]; THP-1-derived macrophages (PMA-differentiated, uninfected), MTT, 24 h, read-out: Uninfected THP-1-Derived Macrophages CC50",77 µM
same,CC50,[4],76.9 ± 2.1 µM
same,Ki,LieIF4A [5],316 ± 80.7 µM
same,IC50,LieIF4A [5],> 1000 µM
same,Ki,eIF4AMus [6],485 ± 94.5 µM
same,IC50,[7]; [12],39.1 µM
CC(C)CCC[C@@H](C)[C@H]1CC[C@H]2[C@@H]3C[C@H](N)[C@H]4C[C@@H](O)CC[C@]4(C)[C@H]3CC[C@]12C [6-α-aminocholestanol],Ki,LieIF4A [5],19.5 ± 3.27 µM
same,IC50,LieIF4A [5],160 µM
same,Ki,eIF4AMus [6]; read-out: Ki,20.2 µM
same,IC50,[7]; [12],3.6 µM
same,IC50,"[7]; MTT, measured using data in ref 7, read-out: Promastigotes LV50 IC50",3.64 ± 0.1 µM
same,CC50,[8],35.2 ± 1.3 µM
CC(C)CCC[C@@H](C)[C@H]1CC[C@H]2[C@@H]3[C@H](N)C=C4C[C@@H](O)CC[C@]4(C)[C@H]3CC[C@]12C [7-α-aminocholesterol],Higher affinity (Ki) for LieIF4A than for eIF4AMus,LieIF4A [9]; Ki eIF4AMus / Ki LieIF4A,~ 9.4 fold
same,Ki,"LieIF4A [9]; Ki, ATPase kinetics, saturating yRNA",8.6 µM and 8.57 µM
same,Ki,"eIF4AMus [10]; ATPase kinetics, saturating yRNA",80.5 µM
same,IC50,[2],2.29 ± 0.4 µM
same,CC50 at 24 h,[3]; Uninfected THP-1-Derived Macrophages CC50,17.5 ± 3.4 µM
same,IC50,[1],1.31 µM
CC(C)CCC[C@@H](C)[C@H]1CC[C@H]2[C@@H]3[C@@H](CN)C=C4C[C@@H](O)CC[C@]4(C)[C@H]3CC[C@]12C [7-β-aminomethylcholesterol],IC50,[1],1.3 µM
Nc1ncnc2c1ncn2[C@@H]1O[C@H](COP(=O)(O)OP(=O)(O)OP(=O)(O)O)[C@@H](O)[C@H]1O [ATP],Km,"LieIF4A [5]; saturating total yeast RNA, control DMSO, no test compound, read-out: Km (ATP hydrolysis)",150 ± 20 µM
CC(C)CCC[C@@H](C)[C@H]1CC[C@H]2[C@@H]3CC=C4C[C@@H](O)CC[C@]4(C)[C@H]3CC[C@]12C [Cholesterol],Effect on ATPase kinetics,LieIF4A [9]; 300 µM compound,no effect
same,Effect on ATPase kinetics,eIF4AMus [10]; 300 µM compound,no effect
same,Effect on promastigotes viability,[2]; 24 h exposure,no effect
COc1ccc([C@@]23Oc4cc(OC)cc(OC)c4[C@]2(O)[C@H](O)[C@H](C(=O)N(C)C)[C@H]3c2ccccc2)cc1 [Rocaglamide A],Increase of ATPase activity,"LieIF4A [9]; 50 µM rocaglamide A vs no compound, 1 ng/µL yRNA",1.7 fold
same,Relative activity (to maximum velocity of eIF4AMus without rocaglamide A),"LieIF4A [9]; 50 µM rocaglamide A, 1 ng/µL yRNA",0.80 ± 0.07
same,ATPase activity with compound relative to saturating RNA without compound (less),"LieIF4A [9]; 50 µM rocaglamide A, 1 ng/µL yRNA vs 340 ng/µL yRNA",2.3 fold
same,V (ATPase reaction velocity),"LieIF4A [9]; 50 µM rocaglamide A, 1 ng/µL yRNA, 1 mM ATP, 820 nM protein, 10% DMSO",0.77 ± 0.07 µM/min
same,Increase of ATPase activity,"eIF4AMus [10]; 50 µM rocaglamide A vs no compound, 55 ng/µL yRNA",6.2 fold
same,Relative activity (to maximum velocity of eIF4AMus without rocaglamide A),"eIF4AMus [10]; 50 µM rocaglamide A, 55 ng/µL yRNA",2.65 ± 0.03
same,ATPase activity with compound relative to saturating RNA without compound (more),"eIF4AMus [10]; 50 µM rocaglamide A, 55 ng/µL yRNA vs 340 ng/µL yRNA",~2.7 fold
same,V (ATPase reaction velocity),"eIF4AMus [10]; 50 µM rocaglamide A, 55 ng/µL yRNA, 1 mM ATP, 1200 nM protein, 10% DMSO",2.55 ± 0.03 µM/min
same,EC50,[11],16.5 µM
